Measurements taken from patent US11963960B2 (Flash Therapeutics, LLC, priority 2020, dated 2024).
“Also recorded” adds a separate entry of the source. Read-outs that look alike come from different tables or passages of the source.

What was measured:
[1] = Assessment of In Vitro Metabolic Stability in dog liver microsomes; assay type: in vitro ADME; conditions: for half-life at 1 μM: dog liver microsomes 0.5 mg/mL, 1 μM compound, NADPH, 37° C., read-out: Dog LM t1/2; for t1/2 in dog LM compared with the compound of example 1: comparison in words
Method: Assessment of In Vitro Metabolic Stability
Dog liver microsomes (0.5 mg/mL) were purchased from Corning. Stock solutions were prepared at 10 mM in DMSO for the test compound. Aliquots of the stock solutions were diluted to 0.5 mM with acetonitrile, and then further diluted upon the addition of liver microsomes/buffer to 1.5 μM. An aliquot of 30 μL of 1.5 μM solutions was mixed with 15 μL of 6 mM NADPH and the final concentration of NADPH was 2 mM, which had been pre-warmed to 37° C. Test compound and Ketanserin final concentrations were 1 μM. The plates were kept in a 37° C. water bath for the duration of the experiment. At each time point (0, 5, 15, 30, 45 minutes), 135 μL of acetonitrile was added into corresponding wells. After the final time point was quenched by acetonitrile, the assay plates were shaken (IKA, MTS 2/4) for 10 min (600 rpm/min) and then centrifuged at 5,594 g for 15 min (Thermo Multifuge×3R). Aliquots of the supernatant were taken, diluted 1:1 into distilled water, and analyzed by LC-MS/MS. The peak area response ratio to internal standard (PARR) of the compounds at 5, 15, 30, 45 minutes was compared to the PARR at time 0 to determine the percent of test compound remaining at each time point. Half-lives were calculated using Excel software, fitting to a single-phase exponential decay equation.

[2] = Assessment of In Vivo Pharmacokinetics in Beagle dog; conditions: for Dog BAV: male Beagle dog, iv or po at 1 mg/kg or 3 mg/kg; for bioavailability in vivo / plasma clearance in vivo: dog, comparison in words
Method: Assessment of In Vivo Pharmacokinetics
A total of 6 Male Non-naïve Beagle dog, weighing approximately 8.00-10.00 kg (Beijing Marshall Biotechnology Co. LTD), were dosed by intravenous injection (iv) or oral gavage (po) at 1 mg/kg or 3 mg/kg. The vehicles of IV and PO are 100% saline and 100% (0.5% MC in water), respectively. The IV dose was conducted via cephalic vein injection, PO via gavage administration. The animals were restrained manually, and approximately 0.5 mL blood/time point was collected from cephalic vein into pre-cooled K2EDTA tubes. Blood sample was put on wet ice and centrifuged at 4° C. (2000 g, 5 min) to obtain plasma within 15 minutes of sample collection. Plasma samples were analyzed by UPLC/MS-MS. PK parameters were estimated by non-compartmental model using WinNonlin6.4.

[3] = target: N-terminally GST-tagged HCK (75-526) (Homo sapiens (Human), UniProt P08631); experiment: HCK Kinase Assay (ProFluor Src-Family Kinase Assay); assay type: biochemical
Sequence of N-terminally GST-tagged HCK (75-526) (P08631 75-526): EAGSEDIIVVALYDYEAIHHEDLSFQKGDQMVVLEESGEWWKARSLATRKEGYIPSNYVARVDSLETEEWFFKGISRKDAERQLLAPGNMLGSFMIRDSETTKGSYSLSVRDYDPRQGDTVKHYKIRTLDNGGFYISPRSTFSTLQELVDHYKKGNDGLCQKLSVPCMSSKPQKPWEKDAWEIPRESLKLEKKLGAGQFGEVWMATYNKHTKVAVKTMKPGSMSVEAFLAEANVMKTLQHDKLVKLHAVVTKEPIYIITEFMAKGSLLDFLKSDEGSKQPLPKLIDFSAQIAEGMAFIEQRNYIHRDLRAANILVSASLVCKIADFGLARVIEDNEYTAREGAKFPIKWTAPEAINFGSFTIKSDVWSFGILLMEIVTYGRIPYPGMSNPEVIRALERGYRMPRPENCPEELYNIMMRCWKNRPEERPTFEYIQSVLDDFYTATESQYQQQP
Outline: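 ProFluor Src-family format: after the kinase reaction, protease solution was added for 60 min at room temperature (22-25° C), then stabilizer.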

[4] = HCK inhibitory activity, 50 μM ATP, read-out: HCK Activity

Row | Structure (SMILES) | half-life at 1 μM [1] | IC50 ([3]; 50 μM ATP, read-out: HCK IC50) | IC50 [3, 4] | further results
1 | CN1CCN([C@H]2CC[C@H](n3cc(-c4ccc(Oc5ccccc5)cc4)c4c(N)ncnc43)CC2)CC1 [Example 1, 7-((trans)-4-(4-methylpiperazin-1-yl)cyclohexyl)-5-(4-phenoxyphenyl)-7H-pyrrolo[2,3-d]pyrimidin-4-amine] | 0.183 h | 0.0033 µM | – | Dog BAV [2]: 0 % F; IC50 [3]: < 0.05 µM
2 | C[C@H]1CN([C@H]2CC[C@H](n3cc(-c4ccc(Oc5ccccc5)cc4)c4c(N)ncnc43)CC2)CCN1 [Example 19, 7-((trans)-4-((S)-3-methylpiperazin-1-yl)cyclohexyl)-5-(4-phenoxyphenyl)-7H-pyrrolo[2,3-d]pyrimidin-4-amine] | 1.4 h | 0.017 µM | < 0.05 µM | t1/2 in dog LM compared with the compound of example 1 [1]: higher t1/2
3 | C[C@H]1CN([C@H]2CC[C@H](n3nc(-c4ccc(Oc5ccccc5)cc4)c4c(N)ncnc43)CC2)CCN1 [Example 21, 1-((trans)-4-((S)-3-methylpiperazin-1-yl)cyclohexyl)-3-(4-phenoxyphenyl)-1H-pyrazolo[3,4-d] pyrimidin-4-amine] | 2.13 h | 0.043 µM | < 0.05 µM | t1/2 in dog LM compared with the compound of example 1 [1]: higher t1/2
4 | CN1CCN([C@H]2CC[C@H](n3nc(-c4ccc(Oc5ccccc5)cc4F)c4c(N)ncnc43)CC2)CC1 [Example 103, 3-(2-Fluoro-4-phenoxyphenyl)-1-((trans)-4-(4-methylpiperazin-1-yl)cyclohexyl)-1H-pyrazolo [3,4-d] pyrimidin-4-amine] | 0.967 h | 0.0041 µM | < 0.05 µM | t1/2 in dog LM compared with the compound of example 1 [1]: higher t1/2; bioavailability in vivo [2]: higher bioavailability; plasma clearance in vivo [2]: lower plasma clearance; Dog BAV [2]: 24 % F
5 | C[C@H]1CN([C@H]2CC[C@H](n3nc(-c4ccc(Oc5ccccc5)cc4F)c4c(N)ncnc43)CC2)CCN1 [Example 127, 3-(2-fluoro-4-phenoxyphenyl)-1-((trans)-4-((S)-3-methylpiperazin-1-yl)cyclohexyl)-1H-pyrazolo[3,4-d]pyrimidin-4-amine] | 1.97 h | 0.0051 µM | < 0.05 µM | t1/2 in dog LM compared with the compound of example 1 [1]: higher t1/2; bioavailability in vivo [2]: higher bioavailability; plasma clearance in vivo [2]: lower plasma clearance; Dog BAV [2]: 57 % F; HCK potency relative to a comparator compound ([3]; example 127 versus example 21 and versus example 17): nearly an order of magnitude higher potency; also recorded: nearly three times greater potency
6 | Nc1ncnc2c1c(-c1ccc(Oc3ccccc3)cc1)cn2C1CCN(C(CO)CO)CC1 [Example 161, 2-(4-(4-amino-5-(4-phenoxyphenyl)-7H-pyrrolo[2,3-d]pyrimidin-7-yl)piperidin-1-yl)propane-1,3-diol] | – | – | < 0.05 µM | –
7 | NCC1OCC(N2CCC(n3cc(-c4ccc(Oc5ccccc5)cc4)c4c(N)ncnc43)CC2)CO1 (centres unmarked) [Example 162, 7-(1-(2-(aminomethyl)-1,3-dioxan-5-yl)piperidin-4-yl)-5-(4-phenoxyphenyl)-7H-pyrrolo[2,3-d]pyrimidin-4-amine] | – | – | < 0.05 µM | –
8 | CN1CCN([C@H]2CC[C@H](c3nc(-c4ccc(Oc5ccccc5)cc4F)c4c(N)ncnn43)CC2)CC1 [Example 163, 5-(2-fluoro-4-phenoxyphenyl)-7-((trans)-4-(4-methylpiperazin-1-yl)cyclohexyl)imidazo[5,1-f][1,2,4]triazin-4-amine] | 1.8 h | 0.0011 µM | < 0.05 µM | t1/2 in dog LM compared with the compound of example 1 [1]: higher t1/2; bioavailability in vivo [2]: higher bioavailability; plasma clearance in vivo [2]: lower plasma clearance; Dog BAV [2]: 51 % F
9 | CN1CCN([C@H]2CC[C@@H](c3nc(-c4ccc(Oc5ccccc5)cc4F)c4c(N)ncnn43)CC2)CC1 [Example 164, 5-(2-Fluoro-4-phenoxyphenyl)-7-((cis)-4-(4-methylpiperazin-1-yl)cyclohexyl)imidazo[5,1-f][1,2,4]triazin-4-amine] | – | – | 0.05 to 0.25 µM | –
10 | C[C@H]1CN([C@H]2CC[C@H](c3nc(-c4ccc(Oc5ccccc5)cc4F)c4c(N)ncnn43)CC2)CCN1 [Example 165, 5-(2-fluoro-4-phenoxyphenyl)-7-((trans)-4-((S)-3-methylpiperazin-1-yl)cyclohexyl)imidazo[5,1-f][1,2,4]triazin-4-amine] | 2.78 h | 0.005 µM | < 0.05 µM | t1/2 in dog LM compared with the compound of example 1 [1]: higher t1/2
11 | CN1CCN([C@H]2CC[C@H](c3cc(-c4ccc(NC(=O)Nc5cc(C(C)(C)C)on5)cc4)c4c(N)ncnn43)CC2)CC1 [Example 171] | – | – | < 0.05 µM | –
12 | CN1CCN([C@H]2CC[C@@H](c3cc(-c4ccc(NC(=O)Nc5cc(C(C)(C)C)on5)cc4)c4c(N)ncnn43)CC2)CC1 [Example 172] | – | – | < 0.05 µM | –

Further lines, with some results ahead:

Row | half-life at 1 μM [1] | IC50 ([3]; 50 μM ATP, read-out: HCK IC50) | IC50 [3, 4] | Structure (SMILES) | further results
13 | – | – | 0.25 to 10 µM | C[C@H]1CN([C@H]2CC[C@@H](c3nc(-c4ccc(Oc5ccccc5)cc4F)c4c(N)ncnn43)CC2)CCN1 [Example 166, 5-(2-fluoro-4-phenoxyphenyl)-7-((cis)-4-((S)-3-methylpiperazin-1-yl)cyclohexyl)imidazo[5,1-f][1,2,4]triazin-4-amine] | –
14 | – | – | 0.25 to 10 µM | CN1CCN([C@H]2CC[C@@H](c3cc(-c4ccc(Oc5ccccc5)cc4)c4c(N)ncnn43)CC2)CC1 [Example 167, 7-((cis)-4-(4-Methylpiperazin-1-yl)cyclohexyl)-5-(4-phenoxyphenyl)pyrrolo[2,1-f][1,2,4]triazin-4-amine] | –
15 | – | – | < 0.05 µM | CN1CCN([C@H]2CC[C@H](c3cc(-c4ccc(Oc5ccccc5)cc4)c4c(N)ncnn43)CC2)CC1 [Example 168, 7-((trans)-4-(4-Methylpiperazin-1-yl)cyclohexyl)-5-(4-phenoxyphenyl)pyrrolo[2,1-f][1,2,4]triazin-4-amine] | –
16 | – | – | < 0.05 µM | C[C@H]1CN([C@H]2CC[C@H](c3cc(-c4ccc(Oc5ccccc5)cc4)c4c(N)ncnn43)CC2)CCN1 [Example 169, 7-((trans)-4-((S)-3-Methylpiperazin-1-yl)cyclohexyl)-5-(4-phenoxyphenyl)pyrrolo[2,1-f][1,2,4]triazin-4-amine] | –
17 | – | – | 0.05 to 0.25 µM | C[C@H]1CN([C@H]2CC[C@@H](c3cc(-c4ccc(Oc5ccccc5)cc4)c4c(N)ncnn43)CC2)CCN1 [Example 170, 7-((cis)-4-((S)-3-Methylpiperazin-1-yl)cyclohexyl)-5-(4-phenoxyphenyl)pyrrolo[2,1-f][1,2,4]triazin-4-amine] | –
18 | – | – | < 0.05 µM | CN1CCN([C@H]2CC[C@H](c3nc(-c4ccc(Oc5ccccc5)cc4)c4c(N)nccn43)CC2)CC1 [Example 173, 3-((trans)-4-(4-Methylpiperazin-1-yl)cyclohexyl)-1-(4-phenoxyphenyl)imidazo[1,5-a]pyrazin-8-amine] | –
19 | – | – | 0.25 to 10 µM | CN1CCN([C@H]2CC[C@@H](c3nc(-c4ccc(Oc5ccccc5)cc4)c4c(N)nccn43)CC2)CC1 [Example 174, 3-((cis)-4-(4-Methylpiperazin-1-yl)cyclohexyl)-1-(4-phenoxyphenyl)imidazo[1,5-a]pyrazin-8-amine] | –
20 | – | – | < 0.05 µM | CN1CCN([C@H]2CC[C@H](c3nc(-c4ccc(NC(=O)Nc5cc(C(C)(C)C)on5)cc4)c4c(N)nccn43)CC2)CC1 [Example 175, 1-(4-(8-amino-3-((trans)-4-(4-methylpiperazin-1-yl)cyclohexyl)imidazo[1,5-a]pyrazin-1-yl)phenyl)-3-(5-(tert-butyl)isoxazol-3-yl)urea] | –
21 | – | – | 0.25 to 10 µM | CN1CCN([C@H]2CC[C@@H](c3cn(-c4ccc(Oc5ccccc5)cc4)c4c(N)ncnc43)CC2)CC1 [Example 176, 7-((cis)-4-(4-methylpiperazin-1-yl)cyclohexyl)-5-(4-phenoxyphenyl)-5H-pyrrolo[3,2-d]pyrimidin-4-amine] | –
22 | – | – | < 0.05 µM | CN1CCN([C@H]2CC[C@H](c3cn(-c4ccc(Oc5ccccc5)cc4)c4c(N)ncnc43)CC2)CC1 [Example 177, 7-((trans)-4-(4-methylpiperazin-1-yl)cyclohexyl)-5-(4-phenoxyphenyl)-5H-pyrrolo[3,2-d]pyrimidin-4-amine] | –
